Measurements from patent US8796429B2, “Bioactive lipid derivatives, and methods of making and using same” (Lpath, Inc., priority 2006, dated 2014).
Entries after “also recorded” stand apart in the source; their conditions may differ.

Tests used:
[1] = tested on: Caki-1 cells; test: LPA-induced IL-8 release, ELISA of supernatants; type: cell-based, human; settings: 18:1 LPA 0.2 mM, cells without mAb, 24 h
Experimental: Three anti-LPA mAbs (B3, B7 and B58) were tested for their abilities to reduce in vitro IL-8 production compared to a non-specific antibody (NS). Caki-1 cells were seeded in 96 well plates and grown to confluency. After overnight serum starvation, cells were treated with 18:1 LPA (0.2 mM) with or without anti-LPA mAb B3, B7, B58 or NS (Non-Specific). After 24 h, cultured supernatants of renal cancer cells (Caki-1), treated with or without LPA and in presence of increasing concentrations of the anti-LPA mAbs B3, B7 and B58, were collected and analyzed for IL-8 levels using a commercially available ELISA kit (Human Quantikine Kit, R&D Systems, Minneapolis, Minn.). […] Similar results were obtained with the other well-known pro-angiogenic factor, VEGF. The inhibition of IL-8 release by the anti-LPA mAbs was also observed in other cancerous cell lines such as the pancreatic cell line Panc-1.

[2] = tested on: human cancer cell lines; test: LPA-induced cancer cell proliferation; type: cell-based; settings: LPA 0.01 mM to 10 mM; SKOV3, OVCAR3, Panc-1, Caki-1, DU-145, A549, HCT-116; also rat RBL-2H3
Experimental: LPA is a potent growth factor supporting cell survival and proliferation by stimulation of Gi, Gq and G12/13 via GPCR-receptors and activation of downstream signaling events. Cell lines were tested for their proliferative response to LPA ([…]). Cell proliferation was assayed by using the cell proliferation assay kit from Chemicon (Temecula Calif.) (Panc-1) and the Cell-Blue titer from Pierce (Caki-1). Each data point is the mean of three independent experiments. […] Even though tumor-derived cells normally have high basal levels of proliferation, LPA appears to further augment proliferation in most tumor cell lines. Anti-LPA mAbs (B7 and B58) were assessed for the ability to inhibit LPA-induced proliferation in selected human cancer cell lines.

[3] = tested on: SKOV3 cells; test: Taxol-induced apoptosis (caspase activity); type: cell-based, human
Experimental: The ability of LPA to protect ovarian tumor cells against apoptosis when exposed to clinically-relevant levels of the chemotherapeutic agent, paclitaxel (Taxol) was investigated. SKVO3 cells were treated with 1% FBS (S), Taxol ([…]), +/− anti-LPA mAbs for 24 h. […] Apoptosis was assayed by measurement of the caspase activity as recommended by the manufacturer (Promega). As anticipated, LPA protected most of the cancer cell lines tested from taxol-induced cell death. […] Moreover, the anti-LPA antibody was able to remove the protection provided by serum. Serum is estimated to contain about […] LPA. […] Taxol-induced caspase activation was enhanced by the addition of all 3 of the anti-LPA mAbs to the culture medium.

[4] = Direct ELISA, chimeric antibody and mutants binding to S1P; settings: for Binding: antibody 0.1 ug/ml, optical density at 450 nm
Experimental: Microtiter ELISA plates (Costar) were coated overnight with S1P diluted in 1 M Carbonate Buffer (pH 9.5) at 37° C. for 1 hr. Plates were washed with PBS (137 mM NaCl, 2.68 mM KCl, 10.1 mM Na2HPO4, 1.76 mM KH2PO4; pH 7.4) and blocked with PBS/BSA/Tween-20 for 1 hr at room temp or overnight at 4° C. For the primary incubation (1 hr at room temp.), a standard curve using the anti-S1P mAb and the samples to be tested for binding was built using the following set of dilutions: 0.4 μg/mL, 0.2 μg/mL, 0.1 μg/mL, 0.05 μg/mL, 0.0125 μg/mL, and 0 μg/mL, and 100 μl added to each well. Plates were washed and incubated with 100 μl per well of HRP conjugated goat anti-mouse (1:20,000 dilution) (Jackson Immuno Research) or HRP conjugated goat anti-human (H+L) diluted 1:50,000 (Jackson Immuno Research) for 1 hr at room temperature. After washing, the enzymatic reaction was detected with tetramethylbenzidine (Sigma) and stopped by adding 1 M H2SO4. The optical density (OD) was measured at 450 nm using a Thermo Multiskan EX. Raw data were transferred to GraphPad software for analysis.
The chromogenic reaction was measured and reported as Optical density (OD). The concentration of the panel of antibodies was 0.1 ug/ml. No interaction of the second antibody with S1P-coated matrix alone was detected.

[5] = Competitive ELISA, specificity of anti-S1P mAb (free lipid competes with plate-bound S1P); type: binding; settings: competitor free S1P
Experimental: Screening of serum and cell supernatant for S1P-specific antibodies was by direct ELISA using the thiolated S1P analog described in Example 1 (i.e., compound 10) as the antigen. A standard ELISA was performed, as described below, except that 50 ul of sample (serum or cell supernatant) was diluted with an equal volume of PBS/0.1% Tween-20 (PBST) during the primary incubation. ELISAs were performed in 96-well high binding ELISA plates (Costar) coated with 0.1 μg of chemically-synthesized compound 10 conjugated to BSA in binding buffer (33.6 mM Na2CO3, 100 mM NaHCO3; pH 9.5). The thiolated-S1P-BSA was incubated at 37° C. for 1 hr. at 4° C. overnight in the ELISA plate wells. The plates were then washed four times with PBS (137 mM NaCl, 2.68 mM KCl, 10.14 mM Na2HPO4, 1.76 mM KH2PO4; pH 7.4) and blocked with PBST for 1 hr. at room temperature. For the primary incubation step, 75 uL of the sample (containing the S1P to be measured), was incubated with 25 uL of 0.1 ug/mL anti-S1P mAb diluted in PBST and added to a well of the ELISA plate. […] Optical density of the samples was determined by measurement at 450 nm using an EL-X-800 ELISA plate reader (Bio-Tech).
For cross reactivity, a competitive ELISA was performed as described above, except for the following alterations (FIG. 4). […] Biotin incorporation was determined as per kit protocol and ranged from 7 to 11 biotin molecules per antibody. […]

[6] = Competitive ELISA, specificity of anti-S1P mAb; type: binding
Experimental: Screening of serum and cell supernatant for S1P-specific antibodies was by direct ELISA using the thiolated S1P analog described in Example 1 (i.e., compound 10) as the antigen. A standard ELISA was performed, as described below, except that 50 ul of sample (serum or cell supernatant) was diluted with an equal volume of PBS/0.1% Tween-20 (PBST) during the primary incubation. ELISAs were performed in 96-well high binding ELISA plates (Costar) coated with 0.1 μg of chemically-synthesized compound 10 conjugated to BSA in binding buffer (33.6 mM Na2CO3, 100 mM NaHCO3; pH 9.5). The thiolated-S1P-BSA was incubated at 37° C. for 1 hr. at 4° C. overnight in the ELISA plate wells. The plates were then washed four times with PBS (137 mM NaCl, 2.68 mM KCl, 10.14 mM Na2HPO4, 1.76 mM KH2PO4; pH 7.4) and blocked with PBST for 1 hr. at room temperature. For the primary incubation step, 75 uL of the sample (containing the S1P to be measured), was incubated with 25 uL of 0.1 ug/mL anti-S1P mAb diluted in PBST and added to a well of the ELISA plate. Each sample was performed in triplicate wells. Following a 1 hr. incubation at room temperature, the ELISA plates were washed four times with PBS and incubated with 100 ul per well of 0.1 ug/mL HRP goat anti-mouse secondary (Jackson Immunoresearch) for 1 hr. at room temperature. Plates were then washed four times with PBS and exposed to tetramethylbenzidine (Sigma) for 1-10 minutes. The detection reaction was stopped by the addition of an equal volume of 1M H2SO4. Optical density of the samples was determined by measurement at 450 nm using an EL-X-800 ELISA plate reader (Bio-Tech).
For cross reactivity, a competitive ELISA was performed as described above, except for the following alterations (FIG. 4). The primary incubation consisted of the competitor (S1P, SPH, LPA, etc.) and a biotin-conjugated anti-S1P mAb. Biotinylation of the purified monoclonal antibody was performed using the EZ-Link Sulfo-NHS-Biotinylation kit (Pierce). Biotin incorporation was determined as per kit protocol and ranged from 7 to 11 biotin molecules per antibody. […]

[7] = ELISA with exchanged crosslinker or protein carrier in the laydown material; type: binding
Text: For example, the normal crosslinker SMCC was exchanged for IOA in conjugating the thiolated-S1P to BSA as the laydown material in the ELISA. […] Similarly, KLH was exchanged for BSA as the protein that was complexed with thiolated-S1P as the laydown material.

lysophosphatidic acid [LPA]
increase of IL-8 expression [1]: 100% | proliferative response to LPA [2]: increased proliferation | protection from Taxol-induced apoptosis ([3]; Taxol 0.5 mM, 24 h): protected SKVO3 cells from Taxol-induced apoptosis

MetLeu
Binding [4]: 1.6 OD

CC(=O)O[C@H]1C(=O)[C@@]2(C)[C@H]([C@H](OC(=O)c3ccccc3)[C@]3(O)C[C@H](OC(=O)[C@H](O)[C@@H](NC(=O)c4ccccc4)c4ccccc4)C(C)=C1C3(C)C)[C@]1(OC(C)=O)CO[C@@H]1C[C@@H]2O [Taxol, paclitaxel]
caspase-3,7 activation ([3]; SKOV3 cells): induced caspase-3,7 activation

CysPhe
binding to S1P compared with the chimeric antibody ([4]; ELISA, substitution of Cys 50 in heavy chain CDR2): did not alter the binding | Binding [4]: 2 OD

B1: anti-S1P mAb: murine IgG1 kappa monoclonal antibody against S1P from hybridoma clone 306D326.26 (ATCC SD-5362) (antibody, listed as Mus musculus, V domains shown)
VH: QAHLQQSDAELVKPGASVKISCKVSGFIFIDHTIHWMKQRPEQGLEWIGCISPRHDITKYNEMFRGKATLTADKSSTTAYIQVNSLTFEDSAVYFCARGGFYGSTIWFDFWGQGTTLTVS
VL: ETTVTQSPASLSMAIGEKVTIRCITTTDIDDDMNWFQQKPGEPPNLLISEGNILRPGVPSRFSSSGYGTDFLFTIENMLSEDVADYYCLQSDNLPFTFGSGTKLEIK
competition for mAb binding to S1P on the plate [5]: can compete for binding | discrimination of thiolated-S1P analog from natural S1P ([6]; competition experiment): unable to distinguish | competition for mAb binding to S1P on the plate ([6]; competitor DH-S1P): can compete for binding | competition for mAb binding to S1P on the plate ([6]; competitor SPC (phosphate linked with choline)): somewhat reduced; also recorded: only slightly competes for binding | binding characteristics, laydown with KLH instead of BSA ([7]; KLH complexed with thiolated-S1P): no significant difference | binding characteristics, laydown with IOA instead of SMCC ([7]; thiolated-S1P conjugated to BSA, compared with BSA-SMCC-thiolated-S1P): nearly identical
